System: Myo5 SH3 domain
Assay: SPOT analysis of cellulose-bound peptides (WISE), Myo5 SH3 domain (Dataset S4)
Type: binding, Saccharomyces cerevisiae
Conditions: for The normalized value in BLU units: Myo5 SH3 domain
[1] = SPOT analysis of cellulose-bound peptides probed with Myo5 SH3 domain, normalized value
[2] = SPOT analysis of membrane-bound peptides, normalized value (see methods)
[3] = SPOT analysis of membrane-synthesized peptides probed with Myo5 SH3 domain, normalized value
[4] = SPOT analysis of cellulose-bound 14-mer yeast proteome peptides, normalized value, mean where the peptide was synthesized more than once

NFLKHYLPSSPGDI
The normalized value in BLU units (SPOT analysis, Myo5 SH3) [1]: 172.3 BLU

DPSDKSLPQQPFHK
The normalized value in BLU units [2]: 191.9 BLU

DFPLYKSPAFPSSC
The normalized value in BLU units (SPOT analysis, Myo5 SH3) [1]: 172.8 BLU

AKVNKCPPDHPYIQ
The normalized value in BLU units (SPOT analysis, Myo5 SH3) [3]: 164.3 BLU

SLQQFYNPESPIQP
The normalized value in BLU units [4]: 131.1 BLU

TLNDRQIPLSPDQM
The normalized value in BLU units [2]: 73.6 BLU

FKVYRWNPDEPSAK
The normalized value in BLU units (SPOT analysis, Myo5 SH3) [3]: 99.0 BLU

ATGKRKLPGWPSAD
The normalized value in BLU units (SPOT analysis, Myo5 SH3) [3]: 136.1 BLU

TPSNMGSPGSPVNV
The normalized value in BLU units (SPOT analysis, Myo5 SH3) [1]: 156.2 BLU

EGRCRLFPHCPLGR
The normalized value in BLU units [2]: 141.3 BLU

VSKAKLQPAKPQFT
The normalized value in BLU units [2]: 252.3 BLU

WETWLYKPGMPPRP
The normalized value in BLU units [4]: 255.2 BLU

YFKNMSNPKIPATK
The normalized value in BLU units (SPOT analysis, Myo5 SH3) [1]: 127.8 BLU

ISNRRPVPRRPSQP
The normalized value in BLU units [2]: 377.4 BLU

SMAMRPIPPLPTES
The normalized value in BLU units [2]: 1326.7 BLU

SENYLVKPTIPGTT
The normalized value in BLU units (SPOT analysis, Myo5 SH3) [1]: 61.5 BLU

GSYIKRTPKIPEKD
The normalized value in BLU units (SPOT analysis, Myo5 SH3) [3]: 206.2 BLU

SVDPKNYPDAPLEG
The normalized value in BLU units [4]: 91.1 BLU

EAHQHHQPPEPQPY
The normalized value in BLU units (SPOT analysis, Myo5 SH3) [1]: 0.0 BLU

DRLSKIKPFLPQSI
The normalized value in BLU units (SPOT analysis, Myo5 SH3) [3]: 225.5 BLU

LLQSLRLPTTPTER
The normalized value in BLU units [4]: 124.6 BLU

IYHCKKQPLVPIGC
The normalized value in BLU units [2]: 293.5 BLU

SSVSKLKPSLPNKL
The normalized value in BLU units (SPOT analysis, Myo5 SH3) [3]: 418.3 BLU

TFSIYSIPSKPGEC
The normalized value in BLU units (SPOT analysis, Myo5 SH3) [1]: 226.8 BLU

VYRRKCIPFAPHQI
The normalized value in BLU units (SPOT analysis, Myo5 SH3) [3]: 382.9 BLU

RRRTRLRPPTPLSQ
The normalized value in BLU units [2]: 1508.6 BLU

TTRKKKDPNAPKRA
The normalized value in BLU units (SPOT analysis, Myo5 SH3) [3]: 274.6 BLU

KALPKRRPSPPLQS
The normalized value in BLU units (SPOT analysis, Myo5 SH3) [3]: 1137.8 BLU

YASQYSRPDGPILL
The normalized value in BLU units [4]: 113.5 BLU

KEFRFIFPLQPLFI
The normalized value in BLU units (SPOT analysis, Myo5 SH3) [1]: 749.7 BLU

NDLVKRFPEQPPLR
The normalized value in BLU units [2]: 21447.2 BLU

GWEPFSLPKDPKVV
The normalized value in BLU units (SPOT analysis, Myo5 SH3) [1]: 75.9 BLU

KFVIHNEPIDPSDK
The normalized value in BLU units [4]: 46.7 BLU

ELFTFDMPTDPSSF
The normalized value in BLU units [4]: 44.9 BLU

QENPYIIPLPPSST
The normalized value in BLU units (SPOT analysis, Myo5 SH3) [1]: 240.4 BLU

FPKKMGPPQWPFST
The normalized value in BLU units [4]: 279.0 BLU

FYKEKAKPLEPILD
The normalized value in BLU units [2]: 87.7 BLU

VLIKFVIPVYPSLP
The normalized value in BLU units (SPOT analysis, Myo5 SH3) [1]: 561.8 BLU

KLWDLSKPSKPLKE
The normalized value in BLU units (SPOT analysis, Myo5 SH3) [1]: 233.1 BLU

LPEKKNSPTTPSVF
The normalized value in BLU units [2]: 102.5 BLU

DGKLKHIPRRPYEI
The normalized value in BLU units [4]: 306.6 BLU

GYDEKGNPIPPNNW
The normalized value in BLU units [4]: 96.0 BLU

HFNDLQSPAQPQQS
The normalized value in BLU units (SPOT analysis, Myo5 SH3) [1]: 92.5 BLU

YFVKKIRPGNPLTK
The normalized value in BLU units [2]: 508.5 BLU

SELTFIAPTQPVST
The normalized value in BLU units (SPOT analysis, Myo5 SH3) [1]: 110.5 BLU

SKNWKLPPRLPHRA
The normalized value in BLU units [2]: 5572.0 BLU

PPMAYNRPVYPPPQ
The normalized value in BLU units [4]: 6717.1 BLU

SWLTMLPPMAPLLS
The normalized value in BLU units (SPOT analysis, Myo5 SH3) [1]: 504.9 BLU

GETRWRIPYLPLDP
The normalized value in BLU units (SPOT analysis, Myo5 SH3) [1]: 118.4 BLU

GFLSKKVPNTPVVV
The normalized value in BLU units [2]: 71.3 BLU

KPLKFLRPTYPDLC
The normalized value in BLU units [4]: 149.2 BLU

HLTDLSPPGTPPTM
The normalized value in BLU units (SPOT analysis, Myo5 SH3) [1]: 260.8 BLU

EGTTKVDPIIPVPE
The normalized value in BLU units [4]: 180.1 BLU

VPNRWATPLDPSIL
The normalized value in BLU units (SPOT analysis, Myo5 SH3) [1]: 125.7 BLU

FQPQRTAPKPPISA
The normalized value in BLU units (SPOT analysis, Myo5 SH3) [3]: 88304.9 BLU

LFDEKVKPQIPQLR
The normalized value in BLU units (SPOT analysis, Myo5 SH3) [3]: 89.2 BLU

SLGERFMPMAPEVY
The normalized value in BLU units (SPOT analysis, Myo5 SH3) [3]: 139.8 BLU

SPNDHSDPSCPCNR
The normalized value in BLU units [4]: 76.1 BLU

EFIVKTIPVPPRDF
The normalized value in BLU units (SPOT analysis, Myo5 SH3) [3]: 115.3 BLU

NKPKRKRPAPPKKK
The normalized value in BLU units (SPOT analysis, Myo5 SH3) [3]: 872.0 BLU

FLYPYDDPNAPIDE
The normalized value in BLU units (SPOT analysis, Myo5 SH3) [1]: 55.4 BLU

TQSGRMGPSEPKHR
The normalized value in BLU units [4]: 455.6 BLU

MKPQKIAPKFPGTV
The normalized value in BLU units [2]: 415.8 BLU

PANPKILPKIPSGA
The normalized value in BLU units (SPOT analysis, Myo5 SH3) [3]: 164.4 BLU

QGSNKYSPSSPLTT
The normalized value in BLU units (SPOT analysis, Myo5 SH3) [3]: 171.4 BLU

NSNVRIPPTVPSKI
The normalized value in BLU units [2]: 423.1 BLU

GLHDYTSPASPKQT
The normalized value in BLU units (SPOT analysis, Myo5 SH3) [1]: 129.7 BLU

TKAKKEKPKPPKPI
The normalized value in BLU units [4]: 157.7 BLU

VPLPFGIPPFPMFP
The normalized value in BLU units (SPOT analysis, Myo5 SH3) [1]: 11610.9 BLU

AFWWKKNPKTPSDY
The normalized value in BLU units [2]: 65.0 BLU

EVLRKYIPGEPEFL
The normalized value in BLU units (SPOT analysis, Myo5 SH3) [3]: 168.7 BLU

Reference: article PMC314469, “Protein Interaction Networks by Proteome Peptide Scanning” (PLoS Biology, 2004)
